Test results as given in article PMC1084349 (BMC Neuroscience, 2005).
Where a SMILES comes first, the peptide text is derived from it.

Key:
rTas1r2-rTas1r3 = biological target: T1, rTas1r2-rTas1r3 (Rattus norvegicus, UniProt Q923K1+Q9Z0R7); test: Calcium mobilization (FLIPR) in transfected HEK293T-Gα16gust44 cells, rat sweet receptor; details: asp 15 mM; cyc 30 mM; neo 0.1 mM; sac 10 mM; suc 100 mM; stev 1 mM
T1 sequence (Q9Z0R7 20-843): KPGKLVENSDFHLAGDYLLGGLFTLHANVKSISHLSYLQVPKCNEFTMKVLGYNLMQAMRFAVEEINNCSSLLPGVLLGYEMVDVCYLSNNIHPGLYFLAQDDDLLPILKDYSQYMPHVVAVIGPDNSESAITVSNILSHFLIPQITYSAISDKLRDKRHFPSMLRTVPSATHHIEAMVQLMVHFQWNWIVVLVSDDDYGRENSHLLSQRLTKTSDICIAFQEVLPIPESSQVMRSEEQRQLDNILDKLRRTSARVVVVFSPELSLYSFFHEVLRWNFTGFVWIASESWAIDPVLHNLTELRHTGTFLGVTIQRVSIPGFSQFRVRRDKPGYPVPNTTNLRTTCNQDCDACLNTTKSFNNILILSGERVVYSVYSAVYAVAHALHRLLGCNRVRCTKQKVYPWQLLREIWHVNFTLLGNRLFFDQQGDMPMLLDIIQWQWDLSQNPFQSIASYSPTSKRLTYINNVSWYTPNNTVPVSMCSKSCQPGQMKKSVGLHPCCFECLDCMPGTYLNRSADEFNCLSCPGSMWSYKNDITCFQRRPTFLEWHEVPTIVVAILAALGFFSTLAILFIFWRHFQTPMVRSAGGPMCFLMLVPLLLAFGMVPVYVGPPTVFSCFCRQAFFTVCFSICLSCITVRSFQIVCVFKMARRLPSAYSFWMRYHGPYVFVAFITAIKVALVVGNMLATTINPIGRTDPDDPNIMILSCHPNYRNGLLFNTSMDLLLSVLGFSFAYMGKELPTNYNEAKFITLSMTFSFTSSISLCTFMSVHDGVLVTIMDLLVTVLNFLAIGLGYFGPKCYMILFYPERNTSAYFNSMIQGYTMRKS
T1 sequence (Q923K1 21-858): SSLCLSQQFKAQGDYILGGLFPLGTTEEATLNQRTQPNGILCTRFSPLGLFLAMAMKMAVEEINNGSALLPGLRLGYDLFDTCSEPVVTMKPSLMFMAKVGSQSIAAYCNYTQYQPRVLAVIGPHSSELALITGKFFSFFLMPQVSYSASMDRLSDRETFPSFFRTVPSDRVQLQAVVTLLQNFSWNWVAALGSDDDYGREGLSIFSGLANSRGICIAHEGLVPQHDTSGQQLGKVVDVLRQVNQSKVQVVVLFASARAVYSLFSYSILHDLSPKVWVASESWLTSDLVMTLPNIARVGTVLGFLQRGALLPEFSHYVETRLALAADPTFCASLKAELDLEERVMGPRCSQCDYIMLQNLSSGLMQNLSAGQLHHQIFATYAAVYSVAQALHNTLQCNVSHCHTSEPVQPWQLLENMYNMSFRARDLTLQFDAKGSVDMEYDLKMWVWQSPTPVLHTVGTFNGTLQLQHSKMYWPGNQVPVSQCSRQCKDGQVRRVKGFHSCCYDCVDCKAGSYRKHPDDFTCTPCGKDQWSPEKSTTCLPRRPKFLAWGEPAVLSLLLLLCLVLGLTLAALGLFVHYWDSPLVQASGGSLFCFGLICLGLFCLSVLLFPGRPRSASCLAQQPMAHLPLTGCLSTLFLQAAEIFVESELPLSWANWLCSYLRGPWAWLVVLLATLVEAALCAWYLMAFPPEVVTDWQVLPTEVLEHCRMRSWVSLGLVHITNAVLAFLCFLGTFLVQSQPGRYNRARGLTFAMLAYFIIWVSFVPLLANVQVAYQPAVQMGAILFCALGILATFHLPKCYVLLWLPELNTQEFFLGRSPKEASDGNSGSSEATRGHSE

[1] = test system: human TAS1R2-TAS1R3 heteromer; details: cited from earlier work

Compound: C=C1C[C@@]23CC[C@H]4[C@@](C)(CCC[C@@]4(C)C(=O)O[C@@H]4O[C@H](CO)[C@@H](O)[C@H](O)[C@H]4O)[C@@H]2CC[C@]1(O[C@@H]1O[C@H](CO)[C@@H](O)[C@H](O)[C@H]1O[C@@H]1O[C@H](CO)[C@@H](O)[C@H](O)[C@H]1O)C3 [stevioside]
- activation of receptor (calcium response) (rTas1r2-rTas1r3): robustly activated

Compound: O=S(=O)(O)NC1CCCCC1 [cyclamate]
- activation of heteromer [1]: only activate the human
- activation of receptor (calcium response) (rTas1r2-rTas1r3): did not activate

Compound: COc1ccc(CCC(=O)c2c(O)cc(O[C@@H]3O[C@H](CO)[C@@H](O)[C@H](O)[C@H]3O[C@@H]3O[C@@H](C)[C@H](O)[C@@H](O)[C@H]3O)cc2O)cc1O [neohesperidine dihydrochalcone]
- activation of receptor (calcium response) (rTas1r2-rTas1r3): did not activate

Compound: OC[C@H]1O[C@@](CO)(O[C@H]2O[C@H](CO)[C@@H](O)[C@H](O)[C@H]2O)[C@@H](O)[C@@H]1O [sucrose]
- activation of receptor (calcium response) (rTas1r2-rTas1r3): robustly activated

Compound: COC(=O)[C@H](Cc1ccccc1)NC(=O)[C@@H](N)CC(=O)O [aspartame] (HELM PEPTIDE1{D.F.[CO[*:1]]}$$$$V2.0)
- activation of heteromer [1]: only activate the human
- activation of receptor (calcium response) (rTas1r2-rTas1r3): did not activate
